# Laboratory results published in PMC7891422, “Tryptophan Analogues with Fixed Side‐Chain Orientation: Expanding the Scope” (Chembiochem, 2020).
# Target: T1, ghrelin receptor (Homo sapiens, UniProt Q92847)
# T1 construct: expressed in transfected cells; host or cells: COS7 cells (stably transfected)
# Assay: IP‐One assay (Cisbio IP-One Gq kit), inverse agonist activity
# Format: cell-based
# Settings: mean±SEM of at least two independent experiments
# Method: The four peptides and two known inverse agonists were tested towards their activity on the ghrelin receptor that was stably transfected in COS7 cells and examined in the Cisbio IP‐One assay as described in the supplementary section.
# The assay was carried out in COS7 cells that were stably transfected with the ghrelin receptor. Data are the mean ±SEM of at least two independent experiments performed in triplicate.
# IP-One assay COS7 cells stably transfected with the ghrelin receptor fused C-terminally to eYFP were cultured in a humidified atmosphere at 37 °C and 5% CO2 in Dulbecco's modified Eagle's medium with higher glucose supplemented with 10% (v/v) FCS and 0.4 mg/ml hygromycin B. Cisbio IP-One Gq assay kit was used according to previous description.[4] Shortly, 10000 cells/well were seeded out in a 384-well flat white plate and on the next day, stimulation was carried out in triplicates for 3h. 3 µl IP1-d2 and 3 µl Ab-cryptate were added and incubated on a tumbler for 60 min. Fluorescence was measured at 620 nm and 665 nm. HTRF ratio was calculated as the ratio 665/620. Obtained data were analyzed with GraphPad Prism 5.0 (GraphPad Software, San Diego, USA)
# Emax is the efficacy of the peptide and represents the difference between constitutive activity and activity at maximal effect of the peptide. EC50 is the peptide concentration at half-
# T1 sequence (Q92847 whole entry, species assumed): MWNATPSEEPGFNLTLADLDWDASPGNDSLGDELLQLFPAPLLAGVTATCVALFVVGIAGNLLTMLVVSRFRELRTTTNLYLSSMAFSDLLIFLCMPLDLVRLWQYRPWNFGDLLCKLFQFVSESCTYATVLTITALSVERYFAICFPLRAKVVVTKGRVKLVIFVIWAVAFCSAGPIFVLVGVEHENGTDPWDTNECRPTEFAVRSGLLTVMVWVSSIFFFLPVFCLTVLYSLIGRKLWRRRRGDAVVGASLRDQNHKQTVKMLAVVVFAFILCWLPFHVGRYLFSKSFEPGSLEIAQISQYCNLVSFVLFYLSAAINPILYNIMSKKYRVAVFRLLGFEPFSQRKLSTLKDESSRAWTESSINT
structure (smiles),measurement,setting,value
"CC(C)C[C@H](NC(=O)[C@H](CC(C)C)NC(=O)[C@@H](Cc1c[nH]c2ccccc12)NC(=O)[C@H](Cc1ccccc1)NC(=O)[C@@H](Cc1c[nH]c2ccccc12)NC(=O)[C@@H](N)CCCCN)C(N)=O [Peptide 4, KwFwLL‐NH2]",E max±SEM,"efficacy = difference between constitutive activity and activity at maximal effect, normalized to KbFwLL‐NH2 (3)",66±3 Δ%
same,EC50,"inverse agonism, COS7 cells stably transfected with ghrelin receptor-eYFP, 3 h stimulation",0.234 µM
